Measured values published in ChEMBL document CHEMBL1201862, “PubChem BioAssay data set” (2004).
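These data come from cells grown in 96-well plates and exposed to compound for 48 hours at five concentrations. The concentration for 50% growth inhibition is given as GI50.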 The source made the active and inactive calls. No stated cut-off is given here; in the data, active = GI50 up to about 1.1 µM and inactive = higher.

Tests used:
Assay in all cases: NCI anticancer screen, dose series, 48 h
[1] = system: CCRF-CEM
[2] = system: SNB-75
[3] = system: K562
[4] = system: KM12
[5] = system: OVCAR-4
[6] = system: A549
[7] = system: DU-145
[8] = system: EKVX
[9] = system: NCI/ADR-RES
[10] = system: MCF7
[11] = system: OVCAR-5
[12] = system: SK-MEL-2
[13] = system: SF-268
[14] = system: MDA-N
[15] = system: HCC 2998
[16] = system: RPMI-8226
[17] = system: PC-3
[18] = system: OVCAR-8
[19] = system: SK-MEL-28
[20] = system: NCI-H522

Row | SMILES | GI50 [1] | GI50 [2] | GI50 [3] | GI50 [4] | GI50 [5] | GI50 [6] | GI50 [7] | GI50 [8] | GI50 [9] | GI50 [10] | GI50 [11] | GI50 [12] | GI50 [13] | GI50 [14] | GI50 [15] | GI50 [16] | GI50 [17] | GI50 [18] | GI50 [19] | GI50 [20]
1 | Cc1cc2c(c(C(=O)NCC(=O)N[C@@H](C)C(=O)OCc3ccccc3)c1)Oc1c(cc(C)cc1C(=O)NCC(=O)N[C@@H](C)C(=O)OCc1ccccc1)S2 | > 100 µM (inactive) | 15.8 µM (inactive) | 23 µM (inactive) | > 100 µM (inactive) | > 100 µM (inactive) | > 100 µM (inactive) | > 100 µM (inactive) | > 100 µM (inactive) | > 100 µM (inactive) | > 100 µM (inactive) | > 100 µM (inactive) | 24.9 µM (inactive) | 37.2 µM (inactive) | > 100 µM (inactive) | 34.7 µM (inactive) | 43.3 µM (inactive) | > 100 µM (inactive) | > 100 µM (inactive) | – | –
2 | COc1cc2c(cc1C)NC(=O)/C2=C/c1c(Cl)n(C)c2ccccc12 | 1.9 µM (inactive) | 3.34 µM (inactive) | 3.02 µM (inactive) | 3.34 µM (inactive) | 6.87 µM (inactive) | 10.2 µM (inactive) | 10.3 µM (inactive) | 6.68 µM (inactive) | 3.61 µM (inactive) | 3.45 µM (inactive) | 12.5 µM (inactive) | 9.66 µM (inactive) | 4.48 µM (inactive) | 2.15 µM (inactive) | 5.18 µM (inactive) | 3.13 µM (inactive) | 5.38 µM (inactive) | 12.5 µM (inactive) | 13 µM (inactive) | –
3 | CCCCOCCOCCOC1=C(Cl)C(=O)c2c(O)ccc(O)c2C1=O | < 0.01 µM (active) | 0.382 µM (active) | 0.0419 µM (active) | 1.79 µM (inactive) | 0.359 µM (active) | 1.85 µM (inactive) | 1.77 µM (inactive) | 2.57 µM (inactive) | 1.97 µM (inactive) | 0.218 µM (active) | 2.52 µM (inactive) | – | 0.759 µM (active) | 0.728 µM (active) | 2.1 µM (inactive) | 0.212 µM (active) | 1.62 µM (inactive) | 1.37 µM (inactive) | 0.357 µM (active) | –
4 | Cc1ccc(S[C@@](C=O)(NC(=O)OCc2ccccc2)C(F)(F)F)cc1 | 23.2 µM (inactive) | 22.5 µM (inactive) | 28.6 µM (inactive) | 20.8 µM (inactive) | 44.9 µM (inactive) | 21.2 µM (inactive) | 21.7 µM (inactive) | 22.3 µM (inactive) | 21.4 µM (inactive) | 26.7 µM (inactive) | 23.2 µM (inactive) | 25.8 µM (inactive) | 22.6 µM (inactive) | 22.8 µM (inactive) | 37.8 µM (inactive) | 20.6 µM (inactive) | 18.6 µM (inactive) | 20.7 µM (inactive) | 25.3 µM (inactive) | –
5 | Cc1n(CC(C)C)c2c([n+]1C)C(=O)c1ccccc1C2=O | 0.122 µM (active) | 0.416 µM (active) | 0.431 µM (active) | 0.205 µM (active) | 0.0594 µM (active) | 0.114 µM (active) | 0.203 µM (active) | 0.0631 µM (active) | 2.43 µM (inactive) | – | 0.244 µM (active) | 0.13 µM (active) | < 0.0169 µM (active) | 0.166 µM (active) | 0.108 µM (active) | 0.0628 µM (active) | 0.0348 µM (active) | 0.0265 µM (active) | 1.06 µM (active) | 0.0176 µM (active)
6 | O=C(O)CCC(NC(=O)c1ccc(CNc2nc3ccccc3nc2C(=O)O)cc1)C(=O)O (stereo not drawn) | > 100 µM (inactive) | > 100 µM (inactive) | > 100 µM (inactive) | > 100 µM (inactive) | > 100 µM (inactive) | > 100 µM (inactive) | > 100 µM (inactive) | > 100 µM (inactive) | > 100 µM (inactive) | > 100 µM (inactive) | > 100 µM (inactive) | > 100 µM (inactive) | > 100 µM (inactive) | > 100 µM (inactive) | – | > 100 µM (inactive) | > 100 µM (inactive) | > 100 µM (inactive) | > 100 µM (inactive) | –
7 | [N-]=[N+]=NC1(c2ccccc2)C(=O)Nc2ccccc2C1=O (stereo not drawn) | 27.3 µM (inactive) | 60.3 µM (inactive) | 29.4 µM (inactive) | 30.1 µM (inactive) | 54.7 µM (inactive) | 76.4 µM (inactive) | 75.5 µM (inactive) | – | 51.2 µM (inactive) | 35 µM (inactive) | 30 µM (inactive) | 24.4 µM (inactive) | 38.2 µM (inactive) | 21.4 µM (inactive) | 57.8 µM (inactive) | 22.7 µM (inactive) | 25.1 µM (inactive) | – | 56.2 µM (inactive) | –
8 | O=[N+]([O-])C(C=C(n1nnc2ccccc21)n1nnc2ccccc21)=C(n1nnc2ccccc21)n1nnc2ccccc21 | 25 µM (inactive) | – | 42.3 µM (inactive) | > 100 µM (inactive) | – | > 100 µM (inactive) | > 100 µM (inactive) | > 100 µM (inactive) | > 100 µM (inactive) | > 100 µM (inactive) | > 100 µM (inactive) | – | > 100 µM (inactive) | > 100 µM (inactive) | > 100 µM (inactive) | 44.6 µM (inactive) | > 100 µM (inactive) | > 100 µM (inactive) | – | –
